# According to patent US6518278B1, “Carcinostatic substance for compatible administration, process of administrating same and process of rapidly inspecting same” (Debio Pharm S.A., priority 1994, dated 2003):
# Entries after “also recorded” stand apart in the source; their conditions may differ.
# Key:
# [1] = system: human leutecyte strain cells (RPMI-8402); test: Rapid inspection of carcinostatic substances by counting divided cells with DAPI; format: cell-based
# Protocol: After over a certain number of cancer cells are prepared by cultivation, a carcinostatic substance is added to the cancer cells. The number of the cells under the cell division at the respective measuring times is counted while continuing the cultivation. […] Accordingly, the effectiveness of the carcinostatic substance can be inspected by counting the number of the cells under the cell division among a certain number (for example, one thousand) of cells several times, comparing the said number with that of the former counting or the previous counting thereof and grasping the progress of the cell division by means of the increase or the decrease of the above comparison. If the DAPI is added with the carcinostatic substance during this procedure, the accurate counting of the number of the divided cells can be performed because the cells under the any phase of the cell division can be recognized. When the number of the divided cells decreases as a result of the comparison between the measurement values, it is judged that the multiplication of the cancer cells is depressed, or the function of the carcinostatic substance is performed. When, on the other hand, the number of the divided cells increases compared with the control, a certain function of the carcinostatic substance is judged to be performed. […] To the respective cultivation liquids were added, together with 1 μg/ml of the DAPI, (1) the control (no addition of the carcinostatic substance), (2) 5 μg/ml of CPT (camptotecin), (3) 10 μg/ml of CPT-11 ([…]), (4) 0.06 μg/ml of ADR (adriamycin), (5) 0.05 μg/ml of DNR (daunomycin), (6) 1 μ/ml of etoposide, (7) 20 μg/ml of MST-16 (sopsoxane), (8) 1 μg/ml of […]), (9) μg/ml of Act-D (actinomycin D), (10) 0.1 μg/ml of mitoxantrone. (11) 20 μg/ml of 5-FU, (12) 10 μg/ml of Ara-C (cytosinarabinoside) (13) 50 μg/ml of hydroxyurea, (14) 2 μg/ml of Aphidicolin, (15) 10 μg/ml of MTX (mesotroxate), (16) 0.05 μg/ml of VCR (vincristin), (17) 0.05 μg/ml of […]). (5) μg/ml of cisplatin, (18) 10 μg/ml of bleomycin, (20)10 μg/ml of MMC (mitomycin C) and (21) 5 μg/ml of cyclophospamide (endoxane). The samples were sampled from the respective cultivation liquids after one hour, […], 24 hours and then every 24 hour from the initiation of the cultivation. The samples were evaluated in accordance with the procedures of the preceding Examples. The results are shown in a graph of FIG. 15.
# [2] = system: human leutecyte strain cell (RPMI-8402); test: Extinction effect of compatible administration of l-OHP and a compatible agent on tumor cells (compatible efficiency OE); format: cell-based; details: for Compatible Effects of l-OHP and Compatible Agent, Simultaneous Administration: both added day 1
# Protocol: In the evaluation of the extinction effect of the tumor cells of the respective combinations, a pure extinction effect produced by the compatible administration of the compatible agent and the l-OHP is calculated by subtracting an extinction effect of a control (no carcinostatic substance is employed).
# The compatibly administration effect is calculated by employing an Equation (1) described later. When the value (%) calculated by this Equation is between 85 and 115%, the compatible administration effect is evaluated to be an additive effect. When the value is below 85%, it is evaluated to be below the additive effect. When the value is over 115%, it is evaluated to be a synergistic effect, ±15% is a reliability limit or a measurement error.
# A target tumor cell was a human leutecyte strain cell (RPMI-8402 of Gibuko K.K.). To these cells was added blood serum of a cow embryo (15%, Gibuko K.K.) to prepare a cell floating liquid of which the number of the cells was 10^6/ml in a cultivation bottle (tradename; Sumiron of Sumitomo Bakelite o., Ltd.) having a volume of 6 ml. A plenty of the cultivation bottles having the cell floating liquid therein were prepared, and the following experiments were conducted while selecting one kind of a compatible agent among cisplatin, 5-FU, irinotecane, adriamycin, etoposide, mitomycin, mitoxantrone, bleomycin, vincristin and vindecin. The time schedules of the controls (no addition of medicines, addition of only the l-OHP and addition of only a compatible agent, and specified in the below items (1) to (4)) and of the compatible administration of the compatible agent and the l-OHP are shown in FIG. 10.
# (1) No medicine was added (control).
# (2) Only the l-OHP was added at a second day.
# (3) A large amount of compatible agents were added at a first day ([…] of the cisplatin, 10 μg/ml of the 5-FU, 0.05 μg/ml of the adriamycin and 1 μg/ml of the etoposide, and for the comparison purpose, 0.05 μg/ml of the vincristin and 0.06 μg/ml of the vindecin). The adding amount of the irinotecano was fixed to 10 μg/ml, and the addition amount of the l-OHP was 5 μg/ml.
# (4) A small amount of compatible agents were added at a first day (0.5 μg/ml of the cisplatin, 5 μg/ml of the 5-FU, 0.01 μg/ml of the adriamycin and 0.5 μg/ml of the etoposide, and for the comparison purpose, 0.01 μg/ml of the vincristin and 0.01 μg/ml of the vindecin). The adding amount of the irinotecane was fixed to 10 μg/ml, and the addition amount of the l-OHP was 1 μg/ml.
# (5) The l-OHP and a large amount (the same as that of the above item (3) and so forth in the following items) of the compatible agents were simultaneously added at a first day.
# (6) The l-OHP and a small amount (the same as that of the above item (4) and so forth in the following items) of the compatible agents were simultaneously added at a first day.
# (7) The l-OHP was added at a first day and a large amount of the compatible agents were added at a second day.
# (8) The l-OHP was added at a first day and a small amount of the compatible agents were added at a second day.
# (9) The l-OHP was added at a first day and a large amount of the compatible agents were added at a third day.
# (10) The l-OHP was added at a first day and a small amount of the compatible agents were added at a third day.
# (11) The l-OHP was added at a first day and a large amount of the compatible agents were added at a fourth day.
# (12) The l-OHP was added at a first day and a small amount of the compatible agents were added at a fourth day.
# (13) A large amount of the compatible agents were added at a first day and the l-OHP was added at a second day.
# (14) A small amount of the compatible agents were added at a first day and the l-OHP was added at a second day.
# (15) A large amount of the compatible agents were added at a first day and the l-OHP was added at a third day.
# (16) A small amount of the compatible agents were added at a first day and the l-OHP was added at a third day.
# [3] = larger dosage of compatible agent (μg/ml: cisplatin 1, 5-FU 10, irinotecane 10, adriamycin 0.05, vincristin 0.05, vindecin 0.05, etoposide 1, bleomycin 10, mitoxantrone 0.1, mitomycine 1), l-OHP 1 μg/ml (5 μg/ml with irinotecane) added day 1
# [4] = larger dosage of compatible agent (μg/ml: cisplatin 1, 5-FU 10, irinotecane 10, adriamycin 0.05, vincristin 0.05, vindecin 0.05, etoposide 1, bleomycin 10, mitoxantrone 0.1, mitomycine 1), l-OHP 1 μg/ml (5 μg/ml with irinotecane)
# [5] = larger dosage of compatible agent added day 1 (μg/ml: cisplatin 1, 5-FU 10, irinotecane 10, adriamycin 0.05, vincristin 0.05, vindecin 0.05, etoposide 1, bleomycin 10, mitoxantrone 0.1, mitomycine 1), l-OHP 1 μg/ml (5 μg/ml with irinotecane)
# [6] = smaller dosage of compatible agent (μg/ml: cisplatin 0.5, 5-FU 5, irinotecane 10, adriamycin 0.01, vincristin 0.01, vindecin 0.01, etoposide 0.5, bleomycin 1, mitoxantrone 0.05, mitomycine 0.5), l-OHP 1 μg/ml added day 1
# [7] = smaller dosage of compatible agent (μg/ml: cisplatin 0.5, 5-FU 5, irinotecane 10, adriamycin 0.01, vincristin 0.01, vindecin 0.01, etoposide 0.5, bleomycin 1, mitoxantrone 0.05, mitomycine 0.5), l-OHP 1 μg/ml
# [8] = smaller dosage of compatible agent added day 1 (μg/ml: cisplatin 0.5, 5-FU 5, irinotecane 10, adriamycin 0.01, vincristin 0.01, vindecin 0.01, etoposide 0.5, bleomycin 1, mitoxantrone 0.05, mitomycine 0.5), l-OHP 1 μg/ml
Structure (SMILES),"number of the divided cells compared with the control (FIG. 15) ([1]; 0.05 μg/ml VCR, 0.05 μg/ml VDS, 20 μg/ml MST-16, with 1 μg/ml DAPI)","division phases of the divided cells (microscope observation) ([1]; ratio of the divided cells increased after the initiation of the cultivation, no anaphase or telophase cells observed)","compatible administration effect with l-OHP, summary in words [2]","Compatible Effects of l-OHP and Compatible Agent, Time Lag Administration, Addition Administration of Compatible Agent day 2 [2, 3]","Compatible Effects of l-OHP and Compatible Agent, Time Lag Administration, Addition Administration of Compatible Agent day 3 [2, 3]","Compatible Effects of l-OHP and Compatible Agent, Time Lag Administration, Addition Administration of Compatible Agent day 4 [2, 3]","Compatible Effects of l-OHP and Compatible Agent, Simultaneous Administration [2, 4]","Compatible Effects of l-OHP and Compatible Agent, Time Lag Administration, Addition Administration of l-OHP day 2 [2, 5]","Compatible Effects of l-OHP and Compatible Agent, Time Lag Administration, Addition Administration of l-OHP day 3 [2, 5]","Compatible Effects of l-OHP and Compatible Agent, Time Lag Administration, Addition Administration of l-OHP day 4 [2, 5]","Compatible Effects of l-OHP and Compatible Agent, Time Lag Administration, Addition Administration of Compatible Agent day 2 [2, 6]","Compatible Effects of l-OHP and Compatible Agent, Time Lag Administration, Addition Administration of Compatible Agent day 3 [2, 6]","Compatible Effects of l-OHP and Compatible Agent, Time Lag Administration, Addition Administration of Compatible Agent day 4 [2, 6]","Compatible Effects of l-OHP and Compatible Agent, Simultaneous Administration [2, 7]","Compatible Effects of l-OHP and Compatible Agent, Time Lag Administration, Addition Administration of l-OHP day 2 [2, 8]","Compatible Effects of l-OHP and Compatible Agent, Time Lag Administration, Addition Administration of l-OHP day 3 [2, 8]","Compatible Effects of l-OHP and Compatible Agent, Time Lag Administration, Addition Administration of l-OHP day 4 [2, 8]"
"CC(C)COC(=O)OCN1C(=O)CN(CCN2CC(=O)N(COC(=O)OCC(C)C)C(=O)C2)CC1=O [MST-16, sopsoxane]",increase of the number of the divided cells was momentarily observed,the division prophase and the division metaphase,–,–,–,–,–,–,–,–,–,–,–,–,–,–,–
"CO[C@@]12[C@H](COC(N)=O)C3=C(C(=O)C(C)=C(N)C3=O)N1C[C@@H]1N[C@@H]12 [mitomycine, mitomycin]",–,–,the additive effect or the synergistic effect regardless of the administration method and the dosage in almost all the cases; also recorded: synergistic effects can be obtained in most combinations when the l-OHP is administrated before to the mitomycin,◯ (◯: Additive Effect),• (•: Synergistic Effect),• (•: Synergistic Effect),◯ (◯: Additive Effect),◯ (◯: Additive Effect),Δ (Δ: Below Additive Effect),Δ (Δ: Below Additive Effect),◯ (◯: Additive Effect),• (•: Synergistic Effect),• (•: Synergistic Effect),◯ (◯: Additive Effect),◯ (◯: Additive Effect),Δ (Δ: Below Additive Effect),◯ (◯: Additive Effect)
O=C1c2c(O)ccc(O)c2C(=O)c2c(NCCNCCO)ccc(NCCNCCO)c21 [mitoxantrone],–,–,the additive effect or the synergistic effect regardless of the administration method and the dosage in almost all the cases; also recorded: synergistic effects can be obtained in all the combinations when a small amount of the mitoxantrone is employed and the l-OHP is added later,• (•: Synergistic Effect),◯ (◯: Additive Effect),Δ (Δ: Below Additive Effect),◯ (◯: Additive Effect),◯ (◯: Additive Effect),◯ (◯: Additive Effect),◯ (◯: Additive Effect),◯ (◯: Additive Effect),• (•: Synergistic Effect),Δ (Δ: Below Additive Effect),• (•: Synergistic Effect),• (•: Synergistic Effect),• (•: Synergistic Effect),• (•: Synergistic Effect)
